The assay addresses T1, α4β7 integrin (Homo sapiens, UniProt P13612+P26010).
T1 construct: monitoring the capture of α4β7 integrin expressing cells on a recombinant MadCAM-1 extracellular domain-coated plate; endogenous in cells; host or cells: RPMI8866 cells
T1 sequence (P13612 34-1032): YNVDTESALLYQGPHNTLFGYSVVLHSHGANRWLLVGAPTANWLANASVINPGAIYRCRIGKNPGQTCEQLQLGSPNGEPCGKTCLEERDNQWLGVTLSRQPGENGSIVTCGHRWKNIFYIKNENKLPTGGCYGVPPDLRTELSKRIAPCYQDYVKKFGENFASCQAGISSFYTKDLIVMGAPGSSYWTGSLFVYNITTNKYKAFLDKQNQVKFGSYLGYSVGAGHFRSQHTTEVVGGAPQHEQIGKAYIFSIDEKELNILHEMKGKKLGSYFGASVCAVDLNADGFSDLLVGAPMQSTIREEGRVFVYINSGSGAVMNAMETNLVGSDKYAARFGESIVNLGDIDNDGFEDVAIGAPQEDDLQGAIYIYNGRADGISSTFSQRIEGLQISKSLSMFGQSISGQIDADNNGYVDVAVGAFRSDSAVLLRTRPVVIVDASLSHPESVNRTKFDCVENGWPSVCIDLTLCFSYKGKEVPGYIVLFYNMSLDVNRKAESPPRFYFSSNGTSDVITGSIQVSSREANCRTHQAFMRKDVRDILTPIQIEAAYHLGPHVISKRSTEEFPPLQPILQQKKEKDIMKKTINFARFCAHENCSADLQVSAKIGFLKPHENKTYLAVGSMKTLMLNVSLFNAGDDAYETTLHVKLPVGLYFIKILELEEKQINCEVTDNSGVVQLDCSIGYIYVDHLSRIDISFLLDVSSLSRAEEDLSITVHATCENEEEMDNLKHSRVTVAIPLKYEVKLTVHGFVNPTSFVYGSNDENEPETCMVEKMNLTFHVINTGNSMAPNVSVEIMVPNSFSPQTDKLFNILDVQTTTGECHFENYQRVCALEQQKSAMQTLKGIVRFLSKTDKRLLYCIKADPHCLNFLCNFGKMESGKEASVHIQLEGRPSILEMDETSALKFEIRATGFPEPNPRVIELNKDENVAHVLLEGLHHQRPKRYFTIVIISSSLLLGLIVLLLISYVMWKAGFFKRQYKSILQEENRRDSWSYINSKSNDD
T1 sequence (P26010 20-798): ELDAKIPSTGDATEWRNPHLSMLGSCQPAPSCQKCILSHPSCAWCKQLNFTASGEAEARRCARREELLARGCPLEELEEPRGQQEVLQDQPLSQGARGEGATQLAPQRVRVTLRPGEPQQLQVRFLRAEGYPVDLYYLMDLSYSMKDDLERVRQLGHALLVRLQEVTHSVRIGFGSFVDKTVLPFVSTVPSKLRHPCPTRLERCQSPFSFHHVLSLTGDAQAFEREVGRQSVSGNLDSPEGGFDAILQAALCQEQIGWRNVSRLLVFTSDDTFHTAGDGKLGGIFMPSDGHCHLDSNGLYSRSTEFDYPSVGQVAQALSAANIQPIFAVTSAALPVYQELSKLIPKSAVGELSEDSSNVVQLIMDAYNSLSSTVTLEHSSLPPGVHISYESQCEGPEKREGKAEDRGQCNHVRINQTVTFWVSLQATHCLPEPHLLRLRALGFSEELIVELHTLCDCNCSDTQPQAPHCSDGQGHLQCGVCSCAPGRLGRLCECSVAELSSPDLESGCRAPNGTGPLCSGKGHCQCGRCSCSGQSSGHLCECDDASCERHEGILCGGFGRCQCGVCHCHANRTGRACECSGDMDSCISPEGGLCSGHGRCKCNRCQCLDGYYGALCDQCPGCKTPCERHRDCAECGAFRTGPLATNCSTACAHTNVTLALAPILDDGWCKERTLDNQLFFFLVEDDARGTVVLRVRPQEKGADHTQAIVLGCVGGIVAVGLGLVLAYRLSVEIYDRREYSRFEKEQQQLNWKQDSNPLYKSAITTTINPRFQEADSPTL
The experiment in a line: α4β7 Integrin Cell Capture Assay. The format is cell-based. To be noted: capture of α4β7 integrin expressing RPMI8866 cells on recombinant MadCAM-1 extracellular domain-coated plate; DMEM+0.5% FBS+0.5 mM MnCl2; read-out: EC50 α4β7. A digest of the protocol:
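RPMI8866 cells in DMEM + 0.5% FBS + 0.5 mM MnCl2 preincubated with compound 1 h at 37 °C, then allowed to bind 30 min at 37 °C to plates coated with MAdCAM-1 extracellular domain (1.0 μg/mL). Cells fixed with glutaraldehyde, Hoechst-stained, imaged and bound cells counted; EC50 from cell count versus concentration.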

pEC50: −log10 of the molar value.

With `COc1c(F)cccc1-c1ccc(C[C@H](NC(=O)c2c(Cl)cccc2Cl)C(=O)O)c2ncccc12` [Example 45, (S)-2-(2,6-dichlorobenzamido)-3-(5-(3-fluoro-2-methoxyphenyl)quinolin-8-yl)propanoic acid], the negative logarithm of the EC50 (pEC50) was 6.61.
For `COc1cc(F)c(F)cc1-c1ccc(C[C@H](NC(=O)c2c(Cl)cccc2Cl)C(=O)O)c2ncccc12` [Example 46, (S)-2-(2,6-dichlorobenzamido)-3-(5-(4,5-difluoro-2-methoxyphenyl)quinolin-8-yl)propanoic acid] the value was 7.49; for `O=C(N[C@@H](Cc1ccc(-c2nccc(C(F)(F)F)c2Cl)c2cccnc12)C(=O)O)c1c(Cl)cccc1Cl` [Example 51, (S)-3-(5-(3-chloro-4-(trifluoromethyl)pyridin-2-yl)quinolin-8-yl)-2-(2,6-dichlorobenzamido)propanoic acid], 7.35; for `COc1cc(F)c(Cl)cc1-c1ccc(C[C@H](NC(=O)c2c(Cl)cccc2Cl)C(=O)O)c2ncccc12` [Example 52, (S)-3-(5-(5-chloro-4-fluoro-2-methoxyphenyl)quinolin-8-yl)-2-(2,6-dichlorobenzamido)propanoic acid], 7.36.
As to `[2H]C([2H])([2H])Oc1cc(F)c(F)cc1-c1ccc(C[C@H](NC(=O)c2c(Cl)cccc2Cl)C(=O)O)c2ncccc12` [Example 55, (S)-2-(2,6-dichlorobenzamido)-3-(5-(4,5-difluoro-2-(methoxy-d3)phenyl)quinolin-8-yl)propanoic acid], the pEC50 was 7.20.
For `COc1cc(F)c(C)cc1-c1ccc(C[C@H](NC(=O)c2c(Cl)cccc2Cl)C(=O)O)c2ncccc12` [Example 56, (S)-2-(2,6-dichlorobenzamido)-3-(5-(4-fluoro-2-methoxy-5-methylphenyl)quinolin-8-yl)propanoic acid], the negative-log EC50 (pEC50) is 7.16.
As to `O=C(N[C@@H](Cc1ccc(-c2nccc(Cl)c2C(F)(F)F)c2cccnc12)C(=O)O)c1c(Cl)cccc1Cl` [Example 57, (S)-3-(5-(4-chloro-3-(trifluoromethyl)pyridin-2-yl)quinolin-8-yl)-2-(2,6-dichlorobenzamido)propanoic acid], the negative logarithm of the EC50 (pEC50) was 7.63.
Then `Cn1c(=O)c(-c2ccc(C[C@H](NC(=O)c3c(Cl)cccc3Cl)C(=O)O)c3ncccc23)c(C(F)(F)F)c2cc(Br)ccc21` [Example 58, (S)-3-(6-bromo-1-methyl-2-oxo-4-(trifluoromethyl)-1,2-dihydro-[3,5′-biquinolin]-8′-yl)-2-(2,6-dichlorobenzamido)propanoic acid], with 7.72; and `Cn1c(=O)c(-c2ccc(C[C@H](NC(=O)c3c(Cl)cccc3Cl)C(=O)O)c3ncccc23)c(C(F)(F)F)c2ccccc21` [Example 59, (S)-2-(2,6-dichlorobenzamido)-3-(1-methyl-2-oxo-4-(trifluoromethyl)-1,2-dihydro-[3,5′-biquinolin]-8′-yl)propanoic acid], with 7.97; and `Cc1c(-c2ccc(C[C@H](NC(=O)c3c(Cl)cccc3Cl)C(=O)O)c3ncccc23)c(=O)n(C)c2ccc(C(F)(F)F)cc12` [Example 66, (S)-2-(2,6-dichlorobenzamido)-3-(1,4-dimethyl-2-oxo-6-(trifluoromethyl)-1,2-dihydro-[3,5′-biquinolin]-8′-yl)propanoic acid], with 8.21.
For `Cc1c(-c2ccc(C[C@H](NC(=O)c3c(Cl)cccc3Cl)C(=O)O)c3ncccc23)c(=O)n(C)c2ccc(Cl)cc12` [Example 67, (S)-3-(6-chloro-1,4-dimethyl-2-oxo-1,2-dihydro-[3,5′-biquinolin]-8′-yl)-2-(2,6-dichlorobenzamido)propanoic acid], the negative logarithm of the EC50 (pEC50) is 8.60.
With `Cn1c2c(c(C(F)(F)F)c(-c3ccc(C[C@H](NC(=O)c4c(Cl)cccc4Cl)C(=O)O)c4ncccc34)c1=O)CCC2` [Example 68, (S)-2-(2,6-dichlorobenzamido)-3-(5-(1-methyl-2-oxo-4-(trifluoromethyl)-2,5,6,7-tetrahydro-1H-cyclopenta[b]pyridin-3-yl)quinolin-8-yl)propanoic acid], the pEC50 was 8.57.
For `COc1cnn(C)c(=O)c1-c1ccc(C[C@H](NC(=O)c2c(Cl)cccc2Cl)C(=O)O)c2ncccc12` [Example 69, (S)-2-(2,6-dichlorobenzamido)-3-(5-(5-methoxy-2-methyl-3-oxo-2,3-dihydropyridazin-4-yl)quinolin-8-yl)propanoic acid] the value was 8.04.
For `Cc1c(-c2ccc(C[C@H](NC(=O)c3c(Cl)cccc3Cl)C(=O)O)c3ncccc23)c(=O)n(C)c2ccc(Br)cc12` [Example 70, (S)-3-(6-bromo-1,4-dimethyl-2-oxo-1,2-dihydro-[3,5′-biquinolin]-8′-yl)-2-(2,6-dichlorobenzamido)propanoic acid] the value was 7.26; for `Cc1c(-c2ccc(C[C@H](NC(=O)c3c(Cl)cccc3Cl)C(=O)O)c3ncccc23)c(=O)n(C)c2ccc(C3CC3)cc12` [Example 71, (S)-3-(6-cyclopropyl-1,4-dimethyl-2-oxo-1,2-dihydro-[3,5′-biquinolin]-8′-yl)-2-(2,6-dichlorobenzamido)propanoic acid], 7.81.
As for `COc1cnn(C)c(=O)c1-c1ccc(C[C@H](NC(=O)c2c(Cl)cccc2Cl)C(=O)O)c2ncccc12` [Example 72, (S)-2-(2,6-dichlorobenzamido)-3-(5-(5-methoxy-2-methyl-3-oxo-2,3-dihydropyridazin-4-yl)quinolin-8-yl)propanoic acid], the pEC50 is 7.95.
`Cc1c(-c2ccc(C[C@H](NC(=O)c3c(Cl)cccc3Cl)C(=O)O)c3ncccc23)c(=O)n(C)c2cc(Cl)ccc12` [Example 74, (S)-3-(7-chloro-1,4-dimethyl-2-oxo-1,2-dihydro-[3,5′-biquinolin]-8′-yl)-2-(2,6-dichlorobenzamido)propanoic acid]: the pEC50 was 6.88.
With `CCOCc1cc(OC)c(-c2ccc(C[C@H](NC(=O)c3c(F)cccc3F)C(=O)O)c3ncccc23)c(OC)c1` [Example 78, (S)-2-(2,6-difluorobenzamido)-3-(5-(4-(ethoxymethyl)-2,6-dimethoxyphenyl)quinolin-8-yl)propanoic acid], the pEC50 is 7.91.
`COc1cc(F)c(F)cc1-c1ccc(C[C@H](NC(=O)c2c(F)cccc2F)C(=O)O)c2ncccc12` [Example 79, (S)-3-(5-(4,5-difluoro-2-methoxyphenyl)quinolin-8-yl)-2-(2,6-difluorobenzamido) propanoic acid]: the pEC50 is 7.34.
With `Cn1cc(-c2ccc(C[C@H](NC(=O)c3c(F)cccc3F)C(=O)O)c3ncccc23)c(=O)n(C)c1=O` [Example 80, (S)-2-(2,6-difluorobenzamido)-3-(5-(1,3-dimethyl-2,4-dioxo-1,2,3,4-tetrahydropyrimidin-5-yl)quinolin-8-yl)propanoic acid], the negative-log EC50 (pEC50) is 7.77.
For `O=C(N[C@@H](Cc1ccc(-c2cc(F)c(F)cc2OC2CC2)c2cccnc12)C(=O)O)c1c(F)cccc1F` [Example 83, (S)-3-(5-(2-cyclopropoxy-4,5-difluorophenyl)quinolin-8-yl)-2-(2,6-difluorobenzamido)propanoic acid] the value was 6.96.

The values above are taken from patent US11179383B2 (Gilead Sciences, Inc., priority 2018, dated 2021).
